Eleven compounds from patent publication US20250059188A1, “ARYLSULPHONAMIDE COMPOUNDS” (Anaxis Pharma Pty Ltd, priority 2021, published 2025) can be followed below.

Test [1] deals with Immortalised Mouse Dermal Fibroblasts (MDFs). Nature of the test: Inhibition of TSI induced necroptosis in mouse dermal fibroblasts (CellTitre-Glo). The following applies: Mus musculus, Fibroblast, 3 h, MDF cells, TSI cocktail (TNF, Smac mimetic, IDN-6556), read-out: Inhibition of TSI-induced necroptosis (IC50 cell-based assay) in MDF. How it is done:
Cellular Assay: Screening Compounds for Inhibition of TSI Induced Necroptosis in, 384 well plate format. • Cell Line ID: Immortalised Mouse Dermal Fibroblasts (MDFs). • Cell Concentration (cells/well): Final cell density is 2200 cells per well. • Cell growth medium: DMEM medium+7.4% Fetal Bovine Serum (FBS). Cells are cultured in Corning 150 cm^2 tissue culture flasks with vented caps at 37° C./10% CO2. • Incubation: Plates were incubated for 30 minutes following addition of compounds and then 3 hours incubation with death stimuli (TSI cocktail) at 37° C./10% CO2 in a humidified incubator. • Compound concentration: 36 μM starting concentration, 1:3 dilution, 10 point • DMSO final concentration (% v/v): 0.3%. Compounds in TSI Cocktail (T: TNF; S: Smac Mimetic; I: IDN-6556) and their Final Concentrations: • rhTNF (100 ng/ml) • Compound A (500 nM)—Smac mimetic, Tetralogic and SYNthesis med chem • IDN-6556 (10 μM)—Selleckchem (S7775)
The cellular assay was carried out according to the following steps: • 1. Each well was prepared by sequential addition of: • a. 40 μL of cell suspension (5.5×10^4 cells/mL) was added to each well to provide a final cell concentration of 2,200 cells per well. • b. After 24 hours, DMSO (control; columns 1-2 and 23-24) or compound in DMSO—addition was performed using acoustic transfer of nL volumes of stock compound to give final test concentrations of 36, 12, 4, 1.3, 0.44, 0.148, 0.049, 0.016, 0.005 and 0.002 μM. All wells were backfilled with DMSO to a final total volume in the well of 100 nL. • c. Following compound/DMSO addition in step (b), Plates were incubated for 30 minutes at 37° C./10% CO2 in a humidified incubator and then 10 μL of 5×TSI cocktail (except to positive controls; columns 2 and 24) was added to each well. • 2. After 3 hours, plate was removed from the 37° C. incubator and equilibrated to room temperature for 15 minutes. • 3. 15 μL of room temperature CellTitre-Glo2™ (Promega™) was added to each well. • 4. Shook plates for 2 minutes (˜600 rpm) and incubated at room temperature for 15 minutes to allow signal to stabilise. • 5. Read luminescence readout on a plate reader.
Percent viability was calculated for each compound according to equation (2): […]
10 point titration curves were fitted with the 4 parameter logistic nonlinear regression model and the IC50 reported reflect the inflection point of the curve for curve fitting.
• Assay involving the TSI cocktail (T: TNF; S: Smac mimetic; I: IDN-6556): TSI treatment ensures that cells specifically undergo necroptotic cell death. TNF activates the TNF receptor, Smac mimetic directs the signal away from proinflammatory signaling and toward the RIPK1/RIPK3-mediated cell death pathways, and IDN-6556 (Caspase inhibitor) ensures that the apoptotic response is blocked leaving only the programmed necrosis response. The compounds' activity (solution in DMSO) tested in this TSI-induced assay was evaluated by determining the number of viable cells in culture by measuring the amount of ATP present as measured by CelltiterGlo.

In the next test the target is human RIPK1 (Homo sapiens (Human), UniProt Q13546). In words: KINOMEscan binding assay, human RIPK1. The following applies: equilibrium dissociation constant. The gist of the method:
(§1)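 Compound dilutions (11 points, 3-fold, mostly from 30,000 nM, 1% DMSO final) competed with immobilized ligand for DNA- or phage-tagged protein, and bead-bound protein was measured by qPCR. Kd values came from Hill-equation fits with slope −1 (Levenberg-Marquardt).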

The target of a further test is human MLKL (full length) (Homo sapiens (Human), UniProt Q8NB16). In words: KINOMEscan binding assay, human MLKL (full length). The following applies: equilibrium dissociation constant. The gist of the method:
as §1

In a further test the target is human RIPK3 (Homo sapiens (Human), UniProt Q9Y572). In words: KINOMEscan binding assay, human RIPK3. The following applies: equilibrium dissociation constant. The gist of the method: as §1
The test system of test [2] is U937 human histiocytic leukemia cell line. Nature of the test: Inhibition of TSQ induced necroptosis in U937 cells (CellTitre-Glo). The following applies: Homo sapiens, U-937, TSQ cocktail (TNF, Smac mimetic, Q-VD-OPh), 48 hours, read-out: Inhibition of TSQ-induced necroptosis (IC50 cell-based assay). The gist of the method:
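U937 cells (20000/well) treated with compound (10-point, 1:3 from 36 μM, 0.3% DMSO) plus TSQ cocktail (hTNF-Fc 100 ng/ml, Smac mimetic 500 nM, Q-VD-OPh 10 μM), 48 h at 37 °C. Viability by CellTiter-Glo luminescence; IC50 from 4-parameter logistic fit. Counter screen: same cells without TSQ.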

In the next test the test system is U937 cells. In words: Counter screen: U937 cell viability without TSQ cocktail (off-target effect). Details: species or system human. The following applies: Homo sapiens, U-937, compound without TSQ cocktail, read-out: Off-target effect (IC50 cell-based assay). An outline of the steps: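 U937 cells (20,000/well) exposed to compound (10-point 1:3 titration from 36 μM, 0.3% DMSO) without TSQ cocktail for 48 h at 37 °C/5% CO2. Viability read as ATP by CellTiter-Glo luminescence; IC50 from 4-parameter logistic fit.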

Chain of human RIPK3 (Q9Y572 whole entry): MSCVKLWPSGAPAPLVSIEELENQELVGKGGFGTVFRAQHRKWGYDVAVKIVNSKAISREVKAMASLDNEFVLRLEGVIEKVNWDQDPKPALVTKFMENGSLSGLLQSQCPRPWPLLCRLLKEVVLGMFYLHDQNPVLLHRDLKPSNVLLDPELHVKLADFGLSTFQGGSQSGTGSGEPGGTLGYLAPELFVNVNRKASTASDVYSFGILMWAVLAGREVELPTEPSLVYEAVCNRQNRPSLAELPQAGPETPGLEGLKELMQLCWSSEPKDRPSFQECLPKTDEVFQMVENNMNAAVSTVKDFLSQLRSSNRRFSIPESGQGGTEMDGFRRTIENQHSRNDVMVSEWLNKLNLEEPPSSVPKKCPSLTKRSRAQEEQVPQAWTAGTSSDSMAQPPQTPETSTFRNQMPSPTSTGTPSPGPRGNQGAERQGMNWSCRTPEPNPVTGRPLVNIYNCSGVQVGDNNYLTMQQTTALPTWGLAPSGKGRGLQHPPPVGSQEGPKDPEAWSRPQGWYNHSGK
Chain of human MLKL (full length) (Q8NB16 whole entry): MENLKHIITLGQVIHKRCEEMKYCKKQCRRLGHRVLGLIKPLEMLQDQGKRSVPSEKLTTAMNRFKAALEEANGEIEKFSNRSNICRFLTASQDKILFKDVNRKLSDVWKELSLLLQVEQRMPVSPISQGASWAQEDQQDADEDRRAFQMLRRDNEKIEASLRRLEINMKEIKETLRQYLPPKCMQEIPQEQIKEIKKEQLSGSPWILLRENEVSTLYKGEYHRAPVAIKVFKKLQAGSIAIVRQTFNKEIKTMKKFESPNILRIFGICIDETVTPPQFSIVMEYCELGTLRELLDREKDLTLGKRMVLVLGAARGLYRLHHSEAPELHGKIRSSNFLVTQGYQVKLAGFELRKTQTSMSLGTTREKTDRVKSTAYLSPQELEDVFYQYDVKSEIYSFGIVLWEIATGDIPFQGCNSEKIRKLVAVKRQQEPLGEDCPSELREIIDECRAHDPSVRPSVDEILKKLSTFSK
Chain of human RIPK1 (Q13546 whole entry): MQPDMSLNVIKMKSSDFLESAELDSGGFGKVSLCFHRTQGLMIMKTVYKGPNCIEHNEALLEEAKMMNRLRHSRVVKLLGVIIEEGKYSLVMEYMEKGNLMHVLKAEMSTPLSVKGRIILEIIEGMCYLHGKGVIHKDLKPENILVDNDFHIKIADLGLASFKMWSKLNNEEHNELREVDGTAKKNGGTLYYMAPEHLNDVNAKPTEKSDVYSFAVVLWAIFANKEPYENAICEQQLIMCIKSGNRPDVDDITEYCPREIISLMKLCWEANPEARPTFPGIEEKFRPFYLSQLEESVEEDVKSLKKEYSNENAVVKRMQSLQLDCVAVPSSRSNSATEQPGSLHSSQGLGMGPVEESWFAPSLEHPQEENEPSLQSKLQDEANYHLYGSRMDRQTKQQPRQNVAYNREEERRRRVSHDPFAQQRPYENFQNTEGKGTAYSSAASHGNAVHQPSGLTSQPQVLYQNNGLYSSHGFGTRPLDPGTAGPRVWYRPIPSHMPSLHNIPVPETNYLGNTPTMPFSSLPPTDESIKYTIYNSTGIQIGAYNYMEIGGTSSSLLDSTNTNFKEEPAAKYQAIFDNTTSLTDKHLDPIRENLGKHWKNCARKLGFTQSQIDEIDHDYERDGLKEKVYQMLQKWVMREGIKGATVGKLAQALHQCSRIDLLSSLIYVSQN

Usually IC50 stands for the concentration at which inhibition is half-maximal. For orientation: Kd means a measure of binding affinity in units of concentration. High values mean a looser complex, low ones a tighter complex. Consider `CCS(=O)(=O)Nc1ccc(-c2coc3c(-c4cnn(C5CCOCC5)c4)cnc(N)c23)cc1OCc1ccc(F)cc1` [Compound 3, N-(4-(4-amino-7-(1-(tetrahydro-2H-pyran-4-yl)-1H-pyrazol-4-yl)furo[3,2-c]pyridin-3-yl)-2-((4-fluorobenzyl)oxy)phenyl)ethanesulfonamide], for which the IC50 in test [1] was in the range of 1000 to 10000 nM. Further, the Kd is greater than 10000 nM on human RIPK1, less than 1 nM on human MLKL (full length) and greater than 10000 nM on human RIPK3.

Turning to `C[C@H](Oc1cc(-c2nn(C)c3c(-c4cnn(C(F)(F)F)c4)cnc(N)c23)ccc1NS(=O)(=O)C(F)F)c1ccc(F)cc1` [Compound 134, (S)-N-(4-(4-amino-1-methyl-7-(1-(trifluoromethyl)-1H-pyrazol-4-yl)-1H-pyrazolo[4,3-c]pyridin-3-yl)-2-(1-(4-fluorophenyl)ethoxy)phenyl)-1,1-difluoromethanesulfonamide], the IC50 in test [2] is 10 to 1000 nM; in the test on U937 cells it was greater than 10000 nM. Also, the Kd is greater than 10000 nM on human RIPK1, 1 to 100 nM at human MLKL (full length) and greater than 10000 nM on human RIPK3.

Regarding `Cn1nc(-c2ccc(NS(=O)(=O)C(F)F)cc2OCc2cccc(F)c2)c2c(N)ncc(-c3cnn(C4CCOCC4)c3)c21` [Compound 135, N-(4-(4-amino-1-methyl-7-(1-(tetrahydro-2H-pyran-4-yl)-1H-pyrazol-4-yl)-1H-pyrazolo[4,3-c]pyridin-3-yl)-3-((3-fluorobenzyl)oxy)phenyl)-1,1-difluoromethanesulfonamide], the IC50 in test [2] was 10 to 1000 nM; in the test with U937 cells, greater than 10000 nM. The Kd on human RIPK1 is greater than 10000 nM; at human MLKL (full length), less than 1 nM; on human RIPK3 it was greater than 10000 nM.

In the case of `CNc1ncc(-n2cc(-c3cnc(N)c4c(-c5ccc(NS(=O)(=O)C(F)F)c(O[C@@H](C)c6ccc(F)cc6)c5)nn(C)c34)cn2)cn1` [Compound 138, (S)-N-(4-(4-amino-1-methyl-7-(1-(2-(methylamino)pyrimidin-5-yl)-1H-pyrazol-4-yl)-1H-pyrazolo[4,3-c]pyridin-3-yl)-2-(1-(4-fluorophenyl)ethoxy)phenyl)-1,1-difluoromethanesulfonamide], the IC50 is 10 to 1000 nM in test [2] and greater than 10000 nM in the test on U937 cells. Moreover, the Kd on human RIPK1 is greater than 10000 nM; on human MLKL (full length) it was 1 to 100 nM; at human RIPK3, greater than 10000 nM.

For `Cn1nc(-c2ccc(NS(=O)(=O)C(F)F)c(OC3(c4ccc(F)cc4)CC3)c2)c2c(N)ncc(-c3cnn(C4CCOCC4)c3)c21` [Compound 140, N-(4-(4-amino-1-methyl-7-(1-(tetrahydro-2H-pyran-4-yl)-1H-pyrazol-4-yl)-1H-pyrazolo[4,3-c]pyridin-3-yl)-2-(1-(4-fluorophenyl)cyclopropoxy)phenyl)-1,1-difluoromethanesulfonamide], the results for the IC50 (in test [2]; in the test with U937 cells) were 10 to 1000 nM and greater than 10000 nM, respectively. The Kd at human RIPK1 was greater than 10000 nM; on human MLKL (full length) it was 1 to 100 nM; on human RIPK3, greater than 10000 nM.

For `C[C@H](Oc1cc(-c2nn(C)c3c(N4CCOCC4)cnc(N)c23)ccc1NS(=O)(=O)C(F)F)c1ccc(F)cc1` [Compound 141, N-{4-[4-amino-1-methyl-7-(morpholin-4-yl)-1H-pyrazolo[4,3-c]pyridin-3-yl]-2-[(1S)-1-(4-fluorophenyl)ethoxy]phenyl}-1,1-difluoromethanesulfonamide], the IC50 in test [2] is 10 to 1000 nM; with U937 cells it was greater than 10000 nM. Besides, the Kd is greater than 10000 nM at human RIPK1, 1 to 100 nM on human MLKL (full length) and greater than 10000 nM at human RIPK3.

Consider `Cn1nc(-c2ccc(NS(=O)(=O)C(F)F)c(OCC3CCCCC3)c2)c2c(N)ncc(-c3cnn(C4CCOCC4)c3)c21` [Compound 150, N-(4-(4-amino-1-methyl-7-(1-(tetrahydro-2H-pyran-4-yl)-1H-pyrazol-4-yl)-1H-pyrazolo[4,3-c]pyridin-3-yl)-2-(cyclohexylmethoxy)phenyl)-1,1-difluoromethanesulfonamide], for which the IC50 in test [1] was 1000 to 10000 nM. Besides, the figures for the Kd at human RIPK1, on human MLKL (full length) and on human RIPK3 were greater than 10000 nM, less than 1 nM and greater than 10000 nM, respectively.

Take `Cc1nn(C2CCN(C)C(C)(C)C2)cc1-c1cnc(N)c2c(-c3ccc(NS(=O)(=O)C(F)F)c(O[C@@H](C)c4ccc(F)cc4)c3)nn(C)c12` (stereo partly drawn) [Compound 156, N-(4-(4-amino-1-methyl-7-(3-methyl-1-(1,2,2-trimethylpiperidin-4-yl)-1H-pyrazol-4-yl)-1H-pyrazolo[4,3-c]pyridin-3-yl)-2-((S)-1-(4-fluorophenyl)ethoxy)phenyl)-1,1-difluoromethanesulfonamide]: the values for the IC50 (in test [2]; in the test with U937 cells) were 10 to 1000 nM and greater than 10000 nM, respectively. Also, the Kd on human RIPK1 was greater than 10000 nM; on human MLKL (full length), 1 to 100 nM; at human RIPK3, greater than 10000 nM.

For the compound `C[C@H](Oc1cc(-c2nn(C)c3c(-c4ccc5[nH]c(=O)n(C)c5c4)cnc(N)c23)ccc1NS(=O)(=O)C(F)F)c1ccc(F)cc1` [Compound 160, (S)-N-(4-(4-amino-1-methyl-7-(3-methyl-2-oxo-2,3-dihydro-1H-benzo[d]imidazol-5-yl)-1H-pyrazolo[4,3-c]pyridin-3-yl)-2-(1-(4-fluorophenyl)ethoxy)phenyl)-1,1-difluoromethanesulfonamide], the IC50 in test [2] was 10 to 1000 nM; with U937 cells, greater than 10000 nM. Further, the Kd is greater than 10000 nM on human RIPK1, less than 1 nM at human MLKL (full length) and greater than 10000 nM on human RIPK3.

As to `C[C@H](Oc1cc(-c2nn(C)c3c(-c4ccc5c(c4)n(C)c(=O)n5C)cnc(N)c23)ccc1NS(=O)(=O)C(F)F)c1ccc(F)cc1` [Compound 161, (S)-N-(4-(4-amino-7-(1,3-dimethyl-2-oxo-2,3-dihydro-1H-benzo[d]imidazol-5-yl)-1-methyl-1H-pyrazolo[4,3-c]pyridin-3-yl)-2-(1-(4-fluorophenyl)ethoxy)phenyl)-1,1-difluoromethanesulfonamide], the figures for the IC50 (in test [2]; in the test on U937 cells) were 1000 to 10000 nM and greater than 10000 nM, respectively. The Kd on human RIPK1 is greater than 10000 nM; at human MLKL (full length) it was less than 1 nM; on human RIPK3 it was greater than 10000 nM.

As to `C[C@H](Oc1cc(-c2nn(C)c3c(-c4ccc5c(c4)CC(=O)N5C)cnc(N)c23)ccc1NS(=O)(=O)C(F)F)c1ccc(F)cc1` [Compound 165, (S)-N-(4-(4-amino-1-methyl-7-(1-methyl-2-oxoindolin-5-yl)-1H-pyrazolo[4,3-c]pyridin-3-yl)-2-(1-(4-fluorophenyl)ethoxy)phenyl)-1,1-difluoromethanesulfonamide], the values for the IC50 (in test [2]; in the test on U937 cells) were 10 to 1000 nM and greater than 10000 nM, respectively. Further, the Kd on human RIPK1 was greater than 10000 nM; on human MLKL (full length), 1 to 100 nM; on human RIPK3 it was greater than 10000 nM.
